Source: patent publication US20090010873A1, “Methods of Cell Therapy, Neurogenesis and Oligodendrogenesis” (YEDA RESEARCH AND DEVELOPMENT CO. LTD., priority 2004, published 2009)

What was measured:
[1] = system: C57B1/6J mice with spinal cord injury; assay: Spinal cord contusion in mice: motor recovery (Basso motor score) after immunization and aNPC transplantation; assay type: in vivo, mouse
[2] = system: neural progenitor cells (NPCs); assay: Oligodendrocyte differentiation of GFP-expressing NPCs co-cultured with differently activated microglia (NG2, RIP); assay type: cell-based, mouse; settings: direct addition to NPCs, 500 ng/ml, no insulin
Method: (i) Neuralprogenitor cell (NPC) culture. Coronal sections (2 mm thick) of tissue containing the subventricular zone of the lateral ventricle were obtained from the brains of adult C57B16/J mice. The tissue was minced and then incubated for digestion at 37° C., 5% CO2 for 45 mine in Earle's balanced salt solution containing 0.94 mg/ml papain (Worthington, Lakewood, N.J.) and 0.18 mg/ml of L-cysteine and EDTA. After centrifugation at 110×g for 15 min at room temperature, the tissue was mechanically dissociated by pipette trituration. Cells obtained from single-cell suspensions were plated (3500 cells/cm^2) in 75-cm^2 Falcon tissue-culture flasks (BD Biosciences, Franklin Lakes, N.J.), in NPC-culturing medium [Dulbecco's modified Eagles's medium (DMEM)/F12 medium (Gibco/Invitrogen, Carlsbad, Calif.) containing 2 mM L-glutamine, 0.6% glucose, 9.6 μg/ml putrescine, 6.3 ng/ml progesterone, 5.2 ng/ml sodium selenite, 0.02 mg/ml insulin, 0.1 mg/ml transferrin, 2 μg/ml heparin (all from Sigma-Aldrich, Rehovot, Israel), fibroblast growth factor-2 (human recombinant, 20 ng/ml), and epidermal growth factor (human recombinant, 20 ng/ml; both from Peprotech, Rocky Hill, N.J.)]. Spheres were passaged every 4-6 days and replated as single cells. Green fluorescent protein (GFP)-expressing neural progenitor cells (NPCs) were obtained as previously described (Pluchino et al., 2003). […]

[3] = system: neural progenitor cells (NPCs); assay: NPCs co-cultured with microglia pre-activated by aggregated Aβ and cytokines (β-III-tubulin); assay type: cell-based, mouse; settings: 10 days co-culture; Aβ 5 μM, IFN-γ 10 ng/ml
Method: (xlvi) Reagents. Recombinant mouse IFN-γ and IL-4 (both containing endotoxin at a concentration below 0.1 ng/μg cytokine) were obtained from R&D Systems (Minneapolis, Minn.). β-amyloid peptides [amyloid protein fragment 1-40 and 1-42 (Aβ1-40/1-42)] were purchased from Sigma-Aldrich, St. Louis, Mo. The Aβ peptides were dissolved in endotoxin-free water, and Aβ aggregates were formed by incubation of Aβ, as described (Ishii et al., 2000).
(li) Neural progenitor cell culture. Coronal sections (2 mm thick) of tissue containing the subventricular zone of the lateral ventricle were obtained from the brains of adult C57B1/6J mice. The tissue was minced and then incubated for digestion at 37° C., 5% CO2 for 45 min in Earle's balanced salt solution containing 0.94 mg/ml papain (Worthington, Lakewood, N.J.) and 0.18 mg/ml of L-cysteine and EDTA. After centrifugation at 110×g for 15 min at room temperature, the tissue was mechanically dissociated by pipette trituration. Cells obtained from single-cell suspensions were plated (3500 cells/cm^2) in 75-cm^2 Falcon tissue-culture flasks (BD Biosciences, San Diego, Calif.), in NPC-culturing medium [Dulbecco's modified Eagles's medium (DMEM)/F12 medium (Gibco/Invitrogen, Carlsbad, Calif.) containing 2 mM L-glutamine, 0.6% glucose, 9.6 μg/ml putrescine, 6.3 ng/ml progesterone, 5.2 ng/ml sodium selenite, 0.02 mg/ml insulin, 0.1 mg/ml transferrin, 2 μg/ml heparin (all from Sigma-Aldrich, Rehovot, Israel), fibroblast growth factor-2 (human recombinant, 20 ng/ml), and epidermal growth factor (human recombinant, 20 ng/ml; both from Peprotech, Rocky Hill, N.J.)]. Spheres were passaged every 4-6 days and replated as single cells. Green fluorescent protein (GFP)-expressing NPCs were obtained as previously described (Pluchino et al., 2003).
(lii) Primary microglial culture. Brains from neonatal (P0-P1) C57B1/6J mice were stripped of their meninges and minced with scissors under a dissecting microscope (Zeiss, Stemi DV4, Germany) in Leibovitz-15 medium (Biological Industries, Kibbutz Beit Ha-Emek, Israel). […]

“MOG/CFA/PBS: immunization with pMOG 35-55 in CFA, PBS i.c.v. instead of aNPCs (MEVGWYRSPFSRVVHLYRNGK; in CFA; UniProt Q61885 63-83, looked up, fragment)” was tested, and the “mean motor recovery (BMS) score” value ([1]; immunization immediately after SCI (pMOG 35-55 or PBS in CFA 0.5% M. tuberculosis), aNPCs or PBS i.c.v. 1 week later, mean±SEM) was 2.71±0.5.
“OVA/CFA/PBS: nonself protein ovalbumin (OVA) emulsified in CFA, PBS i.c.v.” gave a BMS ([1]; ovalbumin in CFA 2.5% M. tuberculosis, aNPCs or PBS i.c.v.) of 2.2±0.68.
In the case of “altered MOG peptide (45D) MEVGWYRSPFDRVVHLYRNGK [45D peptide, peptide analog of MOG 35-55 containing a serine to aspartic acid substitution]”, the BMS ([1]; immunization in CFA 2.5% M. tuberculosis 1 week before SCI, aNPCs i.c.v. 1 week after SCI, mean±SEM) is reported as 4.11±0.27 and the BMS ([1]; immunization in CFA 2.5% M. tuberculosis 1 week before SCI, without aNPC transplantation) is reported as 2.57±0.24.
For rIGF-I: recombinant IGF-I, the “differentiation of NPCs to NG2-expressing cells” value [2] was “significant differentiation to NG2-expressing cells”.
In the case of “Aβ(1-40): aggregated amyloid protein fragment 1-40 used to activate microglia”, the “GFP^+/βIIIT^+ cells (neurogenesis) with microglia activated by the agent” value [3] is reported as “blocked neurogenesis”.
“MOG, residues 35-55 MEVGWYRSPFSRVVHLYRNGK (emulsified in CFA) [MOG/CFA, MOG peptide 35-55 emulsified in CFA containing 2.5% Mycobacterium tuberculosis]” was tested, and the BMS ([1]; MOG peptide 35-55 in CFA 2.5% M. tuberculosis one week prior to SCI, no aNPCs) was 0.35±0.2.
With “Aβ(1-42): amyloid protein fragment 1-42 used to activate microglia” the “GFP^+/βIIIT^+ cells (neurogenesis) with microglia activated by the agent” value [3] was “negative effect was not exhibited”.
